Experimental data as given in PubChem BioAssay (NCI).
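In this assay, cells in 96-well plates receive the compound at five concentrations for 48 hours. Endpoints are linearly interpolated between the surrounding concentrations. TGI: total growth inhibition.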

Columns and labels:
Test in all cases: NCI anticancer screen, dose series, 48 h
[1] = test system: RPMI-8226 leukemia
[2] = test system: MDA-MB-231 breast
[3] = test system: HCC-2998 colon
[4] = test system: TK-10 renal
[5] = test system: IGROV1 ovarian
[6] = test system: SK-MEL-2 melanoma
[7] = test system: HS 578T breast
[8] = test system: A549 NSCLC
[9] = test system: NCI-H23 lung
[10] = test system: ACHN renal
[11] = test system: MDA-MB-435
[12] = test system: MDA-N
[13] = test system: SF-295 CNS
[14] = test system: OVCAR-8 ovarian
[15] = test system: RXF 393 renal
[16] = test system: SW-620 colon
[17] = test system: OVCAR-4 ovarian
[18] = test system: UO-31 renal
[19] = test system: HCT-15 colon
[20] = test system: SF-268 CNS
[21] = test system: HOP-92 NSCLC
[22] = test system: LOX IMVI melanoma
[23] = test system: UACC-257 melanoma
[24] = test system: PC-3 prostate
[25] = test system: OVCAR-5 ovarian
[26] = test system: HT29 colon
[27] = test system: U251 CNS
[28] = test system: SNB-19 CNS
[29] = test system: OVCAR-3 ovarian
[30] = test system: 786-0 renal
[31] = test system: CCRF-CEM leukemia
[32] = test system: MOLT-4 leukemia
[33] = test system: NCI-H460 lung
[34] = test system: SR leukemia
[35] = test system: NCI/ADR-RES ovarian
[36] = test system: KM12 colon
[37] = test system: CAKI-1 renal
[38] = test system: SNB-75 CNS
[39] = test system: EKVX NSCLC
[40] = test system: SK-MEL-28 melanoma
[41] = test system: MCF7 breast
[42] = test system: NCI-H522 lung
[43] = test system: NCI-H226 lung
[44] = test system: COLO 205 colon
[45] = test system: SN12C renal
[46] = test system: UACC-62 melanoma
[47] = test system: BT-549 breast
[48] = test system: SF-539 CNS
[49] = test system: K-562 leukemia
[50] = test system: HOP-62 NSCLC
[51] = test system: SK-OV-3 ovarian
[52] = test system: HCT-116 colon

CC(C)(O)CCc1ccc(O)c2c(=O)c3c(O)c4c(cc3oc12)O[C@H]1OC=C[C@@]41O
TGI [1]: > 33.6 µM
TGI [2]: > 100 µM
TGI [3]: < 0.0176 µM
TGI [4]: > 100 µM
TGI [5]: 0.252 µM
TGI [6]: < 0.01 µM
TGI [7]: 41.6 µM
TGI [8]: > 100 µM
TGI [9]: 0.64 µM
TGI [10]: < 0.01 µM
TGI [11]: < 0.01 µM
TGI [12]: 0.0142 µM
TGI [13]: 25.3 µM
TGI [14]: 0.273 µM
TGI [15]: 1.44 µM
TGI [16]: 27.8 µM
TGI [17]: 0.222 µM
TGI [18]: 0.414 µM
TGI [19]: 14.6 µM
TGI [20]: 8.54 µM
TGI [21]: 14.8 µM
TGI [22]: > 100 µM
TGI [23]: 0.291 µM
TGI [24]: > 35.1 µM
TGI [25]: 8.74 µM
TGI [26]: > 100 µM
TGI [27]: 0.0396 µM
TGI [28]: > 59.5 µM
TGI [29]: < 0.01 µM
TGI [30]: > 64 µM
TGI [31]: > 100 µM
TGI [32]: 0.422 µM
TGI [33]: 20.7 µM
TGI [34]: > 100 µM
TGI [35]: 0.298 µM
TGI [36]: 11.3 µM
TGI [37]: < 0.0318 µM
TGI [38]: 10.1 µM
TGI [39]: > 61.2 µM
TGI [40]: 1.38 µM
TGI [41]: < 0.01 µM
TGI [42]: 18.3 µM
TGI [43]: 0.162 µM
TGI [44]: 0.378 µM
TGI [45]: > 100 µM
TGI [46]: < 0.01 µM
TGI [47]: > 62.5 µM
TGI [48]: 6.76 µM
TGI [49]: > 100 µM
TGI [50]: 2.43 µM
TGI [51]: 13.2 µM
TGI [52]: 4.52 µM
